Data published in publication PMC8070004, “Isorhamnetin Ameliorates Dry Eye Disease via CFTR Activation in Mice” (International Journal of Molecular Sciences, 2021).

Columns and labels:
[1] = biological target: T1, human ANO1 (Homo sapiens, UniProt Q5XXA6); experiment: Apical membrane current in FRT cells expressing human ANO1; assay type: cell-based; settings: 30 μM added 10 min prior to ANO1 activation by 100 μM ATP
T1 construct: expressed in transfected cells; host or cells: FRT cells (FRT-ANO1)
T1 sequence (Q5XXA6 1-986): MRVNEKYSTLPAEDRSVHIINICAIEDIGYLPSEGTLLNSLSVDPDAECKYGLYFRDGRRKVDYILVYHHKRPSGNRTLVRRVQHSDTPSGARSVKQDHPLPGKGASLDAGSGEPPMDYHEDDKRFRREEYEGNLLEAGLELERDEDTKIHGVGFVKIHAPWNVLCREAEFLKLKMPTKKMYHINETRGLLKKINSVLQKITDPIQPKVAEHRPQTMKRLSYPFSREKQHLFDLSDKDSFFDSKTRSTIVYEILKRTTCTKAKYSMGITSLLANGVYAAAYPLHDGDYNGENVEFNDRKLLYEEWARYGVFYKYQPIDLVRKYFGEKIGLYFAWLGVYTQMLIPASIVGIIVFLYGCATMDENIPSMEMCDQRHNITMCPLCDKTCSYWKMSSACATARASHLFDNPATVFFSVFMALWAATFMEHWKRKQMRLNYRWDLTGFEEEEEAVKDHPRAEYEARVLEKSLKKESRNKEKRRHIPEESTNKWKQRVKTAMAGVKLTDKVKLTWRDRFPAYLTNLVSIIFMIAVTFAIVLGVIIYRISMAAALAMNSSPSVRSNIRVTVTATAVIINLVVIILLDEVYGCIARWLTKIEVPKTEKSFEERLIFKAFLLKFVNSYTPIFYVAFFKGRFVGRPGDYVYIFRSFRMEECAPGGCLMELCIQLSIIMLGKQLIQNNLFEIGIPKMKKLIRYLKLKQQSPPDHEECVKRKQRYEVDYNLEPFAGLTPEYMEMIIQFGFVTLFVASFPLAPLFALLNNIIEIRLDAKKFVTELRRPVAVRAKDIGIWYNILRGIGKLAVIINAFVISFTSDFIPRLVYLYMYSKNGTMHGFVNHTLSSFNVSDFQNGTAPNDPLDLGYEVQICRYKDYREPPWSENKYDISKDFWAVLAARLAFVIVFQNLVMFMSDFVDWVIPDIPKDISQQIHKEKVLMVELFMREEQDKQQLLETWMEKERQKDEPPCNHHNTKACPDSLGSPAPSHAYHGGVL

[2] = biological target: WT-CFTR (Homo sapiens, UniProt P13569); experiment: Apical membrane current in WT-CFTR expressing FRT cells; assay type: cell-based; set-up: expressed in transfected cells; host or cells: FRT (Fisher rat thyroid) cells, provided by Dr. Alan Verkman
Chain of WT-CFTR (P13569 whole entry): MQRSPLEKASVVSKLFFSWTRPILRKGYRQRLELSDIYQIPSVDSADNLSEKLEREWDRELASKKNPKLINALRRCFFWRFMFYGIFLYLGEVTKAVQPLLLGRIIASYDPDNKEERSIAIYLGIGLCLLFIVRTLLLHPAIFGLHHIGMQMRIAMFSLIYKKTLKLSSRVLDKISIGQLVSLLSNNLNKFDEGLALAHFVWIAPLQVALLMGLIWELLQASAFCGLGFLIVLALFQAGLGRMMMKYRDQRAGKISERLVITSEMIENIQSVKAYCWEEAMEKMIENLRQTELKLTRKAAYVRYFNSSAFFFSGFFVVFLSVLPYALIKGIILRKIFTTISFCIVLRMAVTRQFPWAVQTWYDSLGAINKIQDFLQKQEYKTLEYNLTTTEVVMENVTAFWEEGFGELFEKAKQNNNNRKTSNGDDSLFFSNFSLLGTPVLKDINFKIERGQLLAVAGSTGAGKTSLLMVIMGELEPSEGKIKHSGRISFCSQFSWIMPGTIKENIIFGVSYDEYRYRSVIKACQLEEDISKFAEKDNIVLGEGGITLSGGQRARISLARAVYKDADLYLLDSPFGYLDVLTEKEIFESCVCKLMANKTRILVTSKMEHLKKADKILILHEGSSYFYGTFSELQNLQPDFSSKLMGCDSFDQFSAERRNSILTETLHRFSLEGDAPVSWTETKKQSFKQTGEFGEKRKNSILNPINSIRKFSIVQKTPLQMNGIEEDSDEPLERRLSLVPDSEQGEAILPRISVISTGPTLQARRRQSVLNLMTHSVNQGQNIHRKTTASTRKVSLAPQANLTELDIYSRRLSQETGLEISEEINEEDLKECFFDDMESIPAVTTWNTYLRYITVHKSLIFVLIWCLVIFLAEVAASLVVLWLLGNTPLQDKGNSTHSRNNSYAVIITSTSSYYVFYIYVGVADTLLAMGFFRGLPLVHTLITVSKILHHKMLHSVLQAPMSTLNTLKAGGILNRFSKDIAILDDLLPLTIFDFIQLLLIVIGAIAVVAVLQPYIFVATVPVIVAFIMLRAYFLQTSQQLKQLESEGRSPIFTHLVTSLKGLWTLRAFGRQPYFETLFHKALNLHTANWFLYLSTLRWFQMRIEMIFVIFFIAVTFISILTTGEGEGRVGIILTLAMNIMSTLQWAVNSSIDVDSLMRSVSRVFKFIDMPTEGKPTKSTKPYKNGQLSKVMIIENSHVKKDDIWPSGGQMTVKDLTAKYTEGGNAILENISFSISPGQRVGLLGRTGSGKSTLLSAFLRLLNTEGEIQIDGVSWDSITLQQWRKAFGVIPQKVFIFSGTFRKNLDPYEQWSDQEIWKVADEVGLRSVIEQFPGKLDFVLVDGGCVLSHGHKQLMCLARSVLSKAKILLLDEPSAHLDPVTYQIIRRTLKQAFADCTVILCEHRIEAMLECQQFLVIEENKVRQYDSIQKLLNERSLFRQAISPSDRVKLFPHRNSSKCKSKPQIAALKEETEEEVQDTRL
Description: Snapwell inserts containing CFTR-expressing FRT and T84 cells were mounted in Ussing chambers (Physiologic Instruments, San Diego, CA, USA). Forskolin, isorhamnetin, and CFTRinh-172 were added to the apical and basolateral bath solution. For FRT cells, the apical bath was filled with a half-Cl^− solution and the basolateral bath was filled with HCO^3--buffered solution to generate transepithelial Cl^− gradient (apical, 64 mM; basolateral, 129 mM), and the basolateral membrane was permeabilized with 250 µg/mL amphotericin B. For T84 cells, symmetrical HCO^3--buffered solutions were used, and ENaC was inhibited with amiloride (100 µM). All cells were bathed for a 20-min stabilization period and aerated with 95% O2/5% CO2 at 37 °C. Apical membrane current and short-circuit current were measured with an EVC4000 Multi-Channel V/I Clamp (World Precision Instruments, Sarasota, FL, USA) and recorded using PowerLab 4/35 (AD Instruments, Castle Hill, Australia). Data were collected and analyzed with ADInstruments acquisition software Labchart Pro 7 software. The sampling rate was 4 Hz.

[3] = system: scopolamine-induced dry eye mice; experiment: Scopolamine-induced dry eye mouse model (corneal fluorescein staining, tear volume); assay type: in vivo; settings: 30 µM, three times a day for 10 days
Description: Tear volume was measured using phenol red threads (Zone-Quick, Oasis Medical, Glendora, CA, USA) by placing them in the lateral canthi of normal CD-1 or dry eye model-treated BL6 mice for 10 s using forceps. Tear volume was measured using a Vernier caliper as the length of thread wetting under a microscope. For normal CD-1 mice, serial measurements were done to evaluate compound pharmacodynamics compared to the vehicle after topical application of a single, 2.5-μL drop of compound formulations containing 20 μM forskolin, 30 μM isorhamnetin, or 20 μM CFTRinh-172 in PBS with 0.1% DMSO.
To assess corneal epithelial disruption, 5 μL of fluorescein dye (1%) were applied to the ocular surface of mice. Photographs of the eye were taken with a digital camera. Each cornea was scored from 0 to 5 according to the Oxford scheme.
Eight-week-old C57BL/6 mice were used for this experiment. Experimental dry eye was induced by subcutaneous injection of 0.5 mg/100 μL scopolamine hydrobromide (Sigma-Aldrich, St. Louis, MO, USA) three times a day with a standard desiccating environment created by placing the mice in a chamber with a continuous air flow (15 L/min) in a room at 25 °C with an ambient humidity of 12%. […]

[4] = system: conjunctival epithelial (ConjE) cells; experiment: MTS cell viability assay in ConjE cells; assay type: cell-based, human; settings: 48 h; isorhamnetin 30 μM, Triton X-100 0.01%
Description: (§1) Immortalized human CorE [47] and immortalized human ConjE (Innoprot, Bizkaia, Spain) cells were plated on 96-well microplates. After 24 h incubation, cells were treated with 30 μM isorhamnetin or 0.01% Triton X-100 and then they were incubated for two days. An equal amount of DMSO was added to the control. The culture medium and the compounds were changed every 12 h. To assess cell proliferation, after 48 h of incubation with the compound, the cells were reincubated with MTS for 1 h. The soluble formazan produced by cellular reduction of MTS was quantified by measuring the absorbance at 490 nm with Infinite M200 (Tecan, Grödig, Austria) microplate reader. MTS assay was done using CellTiter 96 AQueous One Solution Cell Proliferation Assay kit (Promega, Madison, WI, USA).

[5] = system: corneal epithelial (CorE) cells; experiment: MTS cell viability assay in CorE cells; assay type: cell-based, human; settings: 48 h; isorhamnetin 30 μM, Triton X-100 0.01%
Description: as §1

[6] = system: intracellular cAMP; experiment: cAMP assay in FRT cells; assay type: cell-based, rat; settings: 30 µM
Description: FRT cells grown on 96-well culture plates were washed three times with PBS at 37 °C and then incubated in induction buffer from a cAMP assay kit (cAMP-Glo Assay; Promega, Madison, WI, USA) at 37 °C containing 100 μM 3-isobutyl-1-methylxanthine (IBMX) for 10 min in the absence or presence of forskolin or isorhamnetin. Cytosolic cAMP was measured using the kit according to the manufacturer’s protocol.

COc1cc(-c2oc3cc(O)cc(O)c3c(=O)c2O)ccc1O [isorhamnetin]
ANO1 function (apical membrane current) [1]: did not alter
EC50 [2]: 6.6 ± 1.1 µM
CFTR activation (apical membrane current) ([2]; 30 μM, current not further increased by 20 μM forskolin): fully activated
corneal erosion (fluorescein staining) [3]: significantly reduced
tear volume in dry eye mice [3]: increased
cell viability (MTS), ConjE cells [4]: did not affect the cell viability
cell viability (MTS), CorE cells [5]: did not affect the cell viability
intracellular cAMP levels [6]: did not alter
